Measurements published in the supplement of paper PMC11451515.

Tested on: NOMO1
Assay: cell viability relative to DMSO control; higher = less cytotoxic
Conditions: 48 h
Procedure, shortened: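 Viability was expressed as a per-plate percentage of DMSO wells, with cell-free wells as background. Leukemia cells (NOMO1 or SEM at 500 cells/well, P12-Ichikawa at 1000 cells/well) were adapted for at least four passages in each medium and seeded in 1536-well plates (5 μl). Library compounds in DMSO were pin-dosed over an 11-point threefold series from 47 μM to 0.79 nM, and CellTiter-Glo One luminescence was read after 48 h at 37°C.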

[1] = HPLM + 10% dialyzed FBS, 0.000781 µM
[2] = HPLM + 10% dialyzed FBS, 0.00234 µM
[3] = HPLM + 10% dialyzed FBS, 0.00702 µM
[4] = HPLM + 10% dialyzed FBS, 0.0211 µM
[5] = HPLM + 10% dialyzed FBS, 0.0632 µM
[6] = HPLM + 10% dialyzed FBS, 0.19 µM
[7] = HPLM + 10% dialyzed FBS, 0.569 µM
[8] = HPLM + 10% dialyzed FBS, 1.71 µM
[9] = HPLM + 10% dialyzed FBS, 5.12 µM
[10] = HPLM + 10% dialyzed FBS, 15.4 µM
[11] = HPLM + 10% dialyzed FBS, 46.1 µM
[12] = RPMI 5 mM glucose + 10% FBS, 0.000781 µM
[13] = RPMI 5 mM glucose + 10% FBS, 0.00234 µM
[14] = RPMI 5 mM glucose + 10% FBS, 0.00702 µM
[15] = RPMI 5 mM glucose + 10% FBS, 0.0211 µM
[16] = RPMI 5 mM glucose + 10% FBS, 0.0632 µM
[17] = RPMI 5 mM glucose + 10% FBS, 0.19 µM
[18] = RPMI 5 mM glucose + 10% FBS, 0.569 µM
[19] = RPMI 5 mM glucose + 10% FBS, 1.71 µM
[20] = RPMI 5 mM glucose + 10% FBS, 5.12 µM
[21] = RPMI 5 mM glucose + 10% FBS, 15.4 µM
[22] = RPMI 5 mM glucose + 10% FBS, 46.1 µM
[23] = RPMI 5 mM glucose + 10% dialyzed FBS, 0.000781 µM
[24] = RPMI 5 mM glucose + 10% dialyzed FBS, 0.00234 µM
[25] = RPMI 5 mM glucose + 10% dialyzed FBS, 0.00702 µM
[26] = RPMI 5 mM glucose + 10% dialyzed FBS, 0.0211 µM
[27] = RPMI 5 mM glucose + 10% dialyzed FBS, 0.0632 µM
[28] = RPMI 5 mM glucose + 10% dialyzed FBS, 0.19 µM
[29] = RPMI 5 mM glucose + 10% dialyzed FBS, 0.569 µM
[30] = RPMI 5 mM glucose + 10% dialyzed FBS, 1.71 µM
[31] = RPMI 5 mM glucose + 10% dialyzed FBS, 5.12 µM
[32] = RPMI 5 mM glucose + 10% dialyzed FBS, 15.4 µM
[33] = RPMI 5 mM glucose + 10% dialyzed FBS, 46.1 µM

Row | SMILES | cell viability [1] | cell viability [2] | cell viability [3] | cell viability [4] | cell viability [5] | cell viability [6] | cell viability [7] | cell viability [8] | cell viability [9] | cell viability [10] | cell viability [11] | cell viability [12] | cell viability [13] | cell viability [14] | cell viability [15] | cell viability [16] | cell viability [17] | cell viability [18] | cell viability [19] | cell viability [20] | cell viability [21] | cell viability [22] | cell viability [23] | cell viability [24] | cell viability [25] | cell viability [26] | cell viability [27] | cell viability [28] | cell viability [29] | cell viability [30] | cell viability [31] | cell viability [32] | cell viability [33]
1 | O=C(Nc1ccccc1)Nc1ccc(-c2ccc(C(=O)[C@@H]3CCC[C@H]3C(=O)O)cc2)cc1 | 109% | 122% | 103% | 94.1% | 119% | 98.3% | 99% | 77% | 67.2% | 66.7% | 56.5% | 109% | 111% | 98.6% | 101% | 110% | 97.7% | 100% | 95.9% | 90.6% | 83.5% | 69.5% | 105% | 121% | 114% | 105% | 122% | 97.9% | 88.8% | 96% | 81.8% | 73.7% | 59.7%
2 | COc1cc(N2CCC(N3CCN(C)CC3)CC2)ccc1Nc1ncc(Cl)c(Nc2ccccc2[S+](=O)([O-])C(C)C)n1 | 69.2% | 80% | 98.6% | 118% | 147% | 124% | 130% | 65.1% | 55.6% | 38.7% | 17.1% | 87.2% | 73.3% | 125% | 136% | 133% | 134% | 130% | 75.9% | 64.9% | 61.5% | 49.6% | 78.3% | 66.3% | 103% | 113% | 146% | 142% | 131% | 84.3% | 61.4% | 60.4% | 59.1%
3 | CCOC(=O)c1c(CSc2ccccc2)n(C)c2cc(Br)c(O)c(CN(C)C)c12 | 129% | 121% | 114% | 133% | 127% | 128% | 130% | 120% | 128% | 120% | 104% | – | – | – | – | – | – | – | – | – | – | – | 119% | 119% | 124% | 129% | 114% | 124% | 124% | 129% | 108% | 92.8% | 69.1%
4 | COc1cccc(OC)c1-c1cc(C(=O)NC2(C(=O)O)C3CC4CC(C3)CC2C4)nn1-c1ccnc2cc(Cl)ccc12 (configuration not stated) | 129% | 111% | 125% | 135% | 119% | 123% | 102% | 118% | 116% | 111% | 98.9% | 102% | 99.6% | 97.9% | 109% | 99.7% | 100% | 104% | 97.3% | 104% | 107% | 90.8% | 104% | 116% | 108% | 109% | 113% | 104% | 101% | 95.2% | 108% | 91% | 105%
5 | O=C(O)c1cccnc1 | 121% | 114% | 130% | 118% | 115% | 123% | 107% | 85.2% | 49.4% | 27.4% | 13.2% | 121% | 123% | 121% | 102% | 124% | 116% | 112% | 101% | 85% | 23.7% | 14.4% | 116% | 117% | 116% | 117% | 118% | 122% | 117% | 98.6% | 61.5% | 22.1% | 10%
6 | C/C1=C/C(=C(/CNC(=O)C2=CC(=CC3=C2C=N[N]3C4CCCC4)C5=CC=C(CN6CCOCC6)C=C5)C(=O)N1)C | – | – | – | – | – | – | – | – | – | – | – | 110% | 125% | 118% | 120% | 132% | 127% | 127% | 124% | 104% | 117% | 22% | 124% | 118% | 128% | 123% | 125% | 111% | 131% | 125% | 125% | 112% | 13.5%
7 | c1coc(CNc2ncnc3nc[nH]c23)c1 | 120% | 126% | 123% | 133% | 129% | 136% | 117% | 118% | 118% | 108% | 97.3% | 125% | 131% | 124% | 113% | 116% | 119% | 140% | 132% | 118% | 119% | 108% | 124% | 122% | 125% | 124% | 128% | 121% | 121% | 112% | 107% | 94.1% | 88.5%
8 | Cc1nc(-c2ccc(-c3ccc(C(=O)N4CCc5cc6c(cc54)C4(CCN(C)CC4)CO6)cc3)c(C)c2)no1 | 92.2% | 119% | 105% | 124% | 136% | 131% | 128% | 129% | 127% | 127% | 135% | 107% | 120% | 111% | 104% | 116% | 115% | 128% | 104% | 110% | 111% | 112% | 104% | 111% | 116% | 104% | 101% | 131% | 135% | 118% | 122% | 117% | 118%
